Laboratory results taken from ChEMBL document CHEMBL1201862, “PubChem BioAssay data set” (2004).
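Results reflect a 48-hour exposure of cells in 96-well plates to compound at five concentrations. Here, GI50 denotes the concentration required for 50% inhibition of growth.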 The source made the active and inactive calls. Rule as the data show it: active = GI50 up to about 1.1 µM and inactive = higher.

Legend:
Assay in all cases: NCI tumour cell line growth inhibition, 48 h
UO-31 = test system: UO-31
COLO 205 = test system: COLO 205
U-251 = test system: U-251
Malme-3M = test system: Malme-3M
NCI-H460 = test system: NCI-H460
DMS-114 = test system: DMS-114
ACHN = test system: ACHN
HOP-62 = test system: HOP-62
K562 = test system: K562
NCI-H522 = test system: NCI-H522
EKVX = test system: EKVX
SF-268 = test system: SF-268
SN12C = test system: SN12C
MOLT-4 = test system: MOLT-4
SK-MEL-2 = test system: SK-MEL-2
HCT-15 = test system: HCT-15

SMILES | GI50 (UO-31) | GI50 (COLO 205) | GI50 (U-251) | GI50 (Malme-3M) | GI50 (NCI-H460) | GI50 (DMS-114) | GI50 (ACHN) | GI50 (HOP-62) | GI50 (K562) | GI50 (NCI-H522) | GI50 (EKVX) | GI50 (SF-268) | GI50 (SN12C) | GI50 (MOLT-4) | GI50 (SK-MEL-2) | GI50 (HCT-15) [µM]
COC1(OC)CC2C(=O)N(Cc3ccccc3)C1C=C2S(=O)(=O)c1ccccc1 (configuration not stated) | 25 µM (inactive) | 10.2 µM (inactive) | 15.5 µM (inactive) | 20.4 µM (inactive) | 18.2 µM (inactive) | 17.2 µM (inactive) | 20.8 µM (inactive) | 38.8 µM (inactive) | 22.5 µM (inactive) | 13.9 µM (inactive) | 15.6 µM (inactive) | 37 µM (inactive) | 16.4 µM (inactive) | 16.5 µM (inactive) |  | 
N#C/C(=C\c1ccccc1F)C(=O)c1ccccc1 | > 100 µM (inactive) | > 100 µM (inactive) | > 100 µM (inactive) | > 100 µM (inactive) |  | > 100 µM (inactive) | > 100 µM (inactive) | > 100 µM (inactive) | > 100 µM (inactive) | > 100 µM (inactive) | > 100 µM (inactive) | > 100 µM (inactive) | > 100 µM (inactive) | > 100 µM (inactive) | > 100 µM (inactive) | > 100
CC(C)(C)c1ccc2c(c1)S(=O)(=O)Nc1ccccc1NS(=O)(=O)c1cc(C(C)(C)C)ccc1OCCOCCOCCO2 | > 100 µM (inactive) | > 100 µM (inactive) | 88.5 µM (inactive) | 33.5 µM (inactive) | > 100 µM (inactive) | > 100 µM (inactive) | > 100 µM (inactive) | > 100 µM (inactive) | > 100 µM (inactive) |  | 71.8 µM (inactive) | 48.4 µM (inactive) | > 100 µM (inactive) | > 100 µM (inactive) | > 100 µM (inactive) | > 100
CC(C)(C)C(=O)OCC(COC(=O)C(C)(C)C)[N+](=O)[O-] | > 100 µM (inactive) | 57.1 µM (inactive) | > 100 µM (inactive) | > 100 µM (inactive) | > 100 µM (inactive) | > 100 µM (inactive) | > 100 µM (inactive) |  | 47.6 µM (inactive) | 19.1 µM (inactive) | > 100 µM (inactive) | > 100 µM (inactive) | > 100 µM (inactive) | 80.2 µM (inactive) | > 100 µM (inactive) | > 100
CCSC(SCC)c1cc2c(cc1Br)OCO2 | 20.8 µM (inactive) | 15.2 µM (inactive) | 17 µM (inactive) |  | 18.5 µM (inactive) | 15.5 µM (inactive) | 40.3 µM (inactive) | 60.3 µM (inactive) | 3.77 µM (inactive) | 24 µM (inactive) | 31.8 µM (inactive) | 35 µM (inactive) | 30.5 µM (inactive) | 11.9 µM (inactive) | 18.9 µM (inactive) | 9.64
CC(=O)OCC1OC(n2c(-c3ccc(N)cc3)cc(-c3ccco3)c(C#N)c2=O)C(OC(C)=O)C(OC(C)=O)C1OC(C)=O (configuration not stated) | > 50 µM (inactive) | > 50 µM (inactive) | 7.06 µM (inactive) | > 50 µM (inactive) |  | 2.64 µM (inactive) | > 50 µM (inactive) | > 50 µM (inactive) |  | 8.17 µM (inactive) | > 50 µM (inactive) | 11.5 µM (inactive) | > 50 µM (inactive) | > 50 µM (inactive) | 22.4 µM (inactive) | > 50
ClC1=C(Cl)C(Cl)(Cl)c2c3c(c4c(c21)C(Cl)(Cl)C(Cl)=C4Cl)C(Cl)(Cl)C(Cl)=C3Cl |  | > 100 µM (inactive) | > 100 µM (inactive) | > 100 µM (inactive) | > 100 µM (inactive) | > 100 µM (inactive) | > 100 µM (inactive) | > 100 µM (inactive) | > 100 µM (inactive) | 33.1 µM (inactive) | > 100 µM (inactive) | > 100 µM (inactive) | > 100 µM (inactive) | > 100 µM (inactive) |  | > 100
